Source: the supplement of paper PMC10307832

Experiments:
Assay in all cases: relative viability (nuclei count vs DMSO), 5 days (fraction); higher = more cells survive
[1] = compound: COC1=CC(c2cc3ccccc3[nH]2)=N/C1=C\c1[nH]c(C)cc1C [Obatoclax] + CC(=O)Nc1cccc(-n2c(=O)n(C3CC3)c(=O)c3c(Nc4ccc(I)cc4F)n(C)c(=O)c(C)c32)c1 [Trametinib] (partner 0.02 µM)
In short: (§1)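 Medians of duplicate plates are given as relative viability. That measure is the nuclei count in treated wells divided by the count in vehicle wells. Counts were taken on 4× images of lung cancer cell lines in 1536-well plates, 5 days after pin-tool dosing the day after seeding with one drug alone or a fixed anchor-drug dose plus five library-drug doses (not always all listed) in √10 steps.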

[2] = compound: CC(C)C[C@H](NC(=O)[C@H](Cc1ccccc1)NC(=O)c1cnccn1)B(O)O [Bortezomib] + Cc1cc(Nc2cc(N3CCN(C)CC3)nc(Sc3ccc(NC(=O)C4CC4)cc3)n2)n[nH]1 [Tozasertib] (partner 0.1 µM)
In short: as §1

[3] = compound: CC1=CC(=NN1)NC2=CC(=NC(=N2)/C=C/C3=CC=CC=C3)N4CCN(CC4)C + O=C(c1cc(Cc2n[nH]c(=O)c3ccccc23)ccc1F)N1CCN(C(=O)C2CC2)CC1 [Olaparib] (partner 8 µM)
In short: as §1

[4] = compound: CC1=CC(=NN1)NC2=CC(=NC(=N2)/C=C/C3=CC=CC=C3)N4CCN(CC4)C + Cc1cc(Nc2cc(N3CCN(C)CC3)nc(Sc3ccc(NC(=O)C4CC4)cc3)n2)n[nH]1 [Tozasertib] (partner 0.1 µM)
In short: as §1

Cell Line | relative viability ([1]; first compound 0.01 µM) | relative viability ([1]; first compound 0.03162 µM) | relative viability ([1]; first compound 0.1 µM) | relative viability ([1]; first compound 0.3162 µM) | relative viability ([1]; first compound 1 µM) | relative viability ([2]; first compound 0.0002 µM) | relative viability ([2]; first compound 0.000632 µM) | relative viability ([2]; first compound 0.002 µM) | relative viability ([2]; first compound 0.006325 µM) | relative viability ([2]; first compound 0.02 µM) | relative viability ([3]; first compound 0.08 µM) | relative viability ([3]; first compound 0.253 µM) | relative viability ([3]; first compound 0.8 µM) | relative viability ([3]; first compound 2.53 µM) | relative viability ([3]; first compound 8 µM) | relative viability ([4]; first compound 0.08 µM) | relative viability ([4]; first compound 0.253 µM) | relative viability ([4]; first compound 0.8 µM) | relative viability ([4]; first compound 2.53 µM) | relative viability ([4]; first compound 8 µM)
NCI-H2347 | 0.312 | 0.305 | 0.27 | 0.237 | 0.277 | 0.522 | 0.676 | 0.471 | 0.195 | 0.166 | 0.553 | 0.665 | 0.578 | 0.565 | 0.406 | 0.501 | 0.565 | 0.518 | 0.461 | 0.257
NCI-H2405 | 0.6 | 0.746 | – | 0.741 | 0.861 | 0.715 | 0.804 | 0.629 | 0.23 | 0.153 | 0.842 | 0.937 | 0.93 | 0.753 | 0.183 | 0.751 | 0.72 | 0.674 | 0.421 | 0.185
NCI-H3122 | 0.251 | 0.215 | 0.241 | 0.205 | 0.212 | 0.388 | 0.43 | 0.266 | 0.153 | 0.088 | 0.568 | 0.722 | 0.654 | 0.62 | 0.474 | 0.373 | 0.408 | 0.408 | 0.33 | 0.231
PC-3 [JPC-3] | 0.643 | 0.71 | 0.621 | 0.667 | 0.47 | 0.827 | 0.898 | 0.442 | 0.169 | 0.125 | 1.16 | 1.31 | 1.22 | 1.09 | 0.615 | 0.886 | 0.899 | 0.839 | 0.74 | 0.461
PC-14 | 0.719 | 0.665 | 0.513 | 0.104 | 0.0647 | 0.415 | 0.612 | 0.562 | 0.113 | 0.0502 | 0.285 | 0.289 | 0.275 | 0.0326 | 0.0264 | 0.634 | 0.619 | 0.55 | 0.359 | 0.0595
RERF-LC-KJ | 0.888 | 0.834 | 0.835 | 0.869 | 0.769 | 0.523 | 0.436 | 0.559 | 0.208 | 0.189 | 0.982 | 0.88 | 0.882 | 0.243 | 0.201 | 0.545 | 0.437 | 0.306 | 0.197 | 0.2
